Measurements as given in US10059695B2, “Cot modulators and methods of use thereof” (Gilead Sciences, Inc., priority 2016, dated 2018).

What was measured:
TNFα = experiment: Cot Monocyte TNFα Cell Based Assay; conditions: LPS-stimulated cryopreserved human monocytes, TNFα by TR-FRET
Method: Example 23: Cot Monocyte TNFα Cell Based Assay
Cryopreserved human monocytes (Stem Cell Technologies) were thawed, diluted in RPMI with Glutamax (10 mM HEPES, 1× Pen-Strep, 55 μM β-mercaptoethanol, 1 mM Sodium pyruvate) media containing 10% FBS to 0.125×10^6 cells/ml and recovered at 37° C. for 2 hours. The cell suspension was then plated at a density of 5,000 cells/well onto black 384 well Greiner clear bottom plates. Plates were pre-spotted with test compounds and serially diluted in DMSO where 200 nL/well were delivered using the Echo 550 acoustic liquid dispenser (Labcyte®) for a final DMSO concentration of 0.5%. Plated cells were treated with compound for 1 hour at 37° C. Cells were then stimulated with 50 μg/ml of LPS (Sigma) excluding outside columns of plate used for unstimulated cell control wells. Cells were incubated for an additional 4 hours at 37° C. Cells were then spun out of the media and 5 μl of sample were taken and analyzed for total TNFα content using the TR-FRET Human TNFα detection system (CisBio). This system utilizes two labeled antibodies (cryptate and XL665) that bind to two different epitopes of the TNFα molecule and produce FRET signal proportional to the concentration of TNFα in the sample. Detection antibodies are mixed 50:50 and 5 μL were dispensed into each well. Plates were covered with clear seals and incubated at room temp overnight. The following morning plates were read using an Envision 2103 Multilabeled reader (PerkinElmer) with excitation/emission/FRET emission at 340 nm/615 nm/665 nm, respectively. Fluorescence intensities at 615 nm and 665 nm emission wavelengths were expressed as a ratio (665 nm/615 nm). Percent of control was calculated as follows: % Control=100×(RatioSample−Ratio0% stimulation)/(Ratio100% Stimulation−Ratio0% Stimulation) where unstimulated cells (0% stimulation) were the negative control and stimulated cells (100% stimulation) were used as the positive control.

Human Cot = Human Cot (Homo sapiens (Human), UniProt P41279); experiment: High Throughput Cot Biochemical Assay (KinEASE TR-FRET); conditions: recombinant human Cot catalytic domain, 400 μM ATP
Method: Example 24: High Throughput Cot Biochemical Assay
Human Cot enzyme activity was measured using KinEASE (Cisbio), a time-resolved fluorescence resonance energy transfer (TR-FRET) immunoassay. In this assay, Cot-catalyzes the phosporylation of a XL665-labeled peptide substrate. Europium conjugated […] specific antibody binds the resulting phosphorylated peptide. Formation of phosphorylated peptide is quantified by TR-FRET with Europium as the donor and XL665 the acceptor in a 2-step endpoint assay. Purified recombinant human Cot catalytic domain (30-397 amino acids) was purchased from Carna Biosciences. In brief, test compounds serially diluted in DMSO were delivered into Proxy white, low volume, 384 well plates using the Echo 550 acoustic liquid dispenser (Labcyte®). Cot enzyme and substrates were dispensed into assay plates using a Multi-Flo (Bio-Tek Instruments). The standard 5 μL reaction mixture contained 400 μM ATP, 1 μM STK3 peptide, 5 nM of Cot in reaction buffer (10 mM MOPS, pH 7.0, 0.02% NaN3, 0.5 mg/mL BSA, 10 mM MgOAc, 1 mM DTT, 0.025% NP-40, 1.5% glycerol) and 0.1% DMSO. After 2.5 hrs of incubation at room temperature, 5 μL of Stop and Detect Solution (1:200 Europium Cryptate labeled anti-phosphorylated peptide antibody solution and 125 nM strepavidin-XL665 Tracer in a 50 mM Hepes pH 7.0 detection buffer containing sufficient EDTA) was added. The plate was then further incubated for 120 minutes at room temperature and read using an Envision 2103 Multilabeled reader (PerkinElmer) with excitation/emission/FRET emission at 340 nm/615 nm/665 nm, respectively. Fluorescence intensities at 615 nm and 665 nm emission wavelengths were expressed as a ratio (665 nm/615 nm).

Human Cot, sequence (P41279 30-397): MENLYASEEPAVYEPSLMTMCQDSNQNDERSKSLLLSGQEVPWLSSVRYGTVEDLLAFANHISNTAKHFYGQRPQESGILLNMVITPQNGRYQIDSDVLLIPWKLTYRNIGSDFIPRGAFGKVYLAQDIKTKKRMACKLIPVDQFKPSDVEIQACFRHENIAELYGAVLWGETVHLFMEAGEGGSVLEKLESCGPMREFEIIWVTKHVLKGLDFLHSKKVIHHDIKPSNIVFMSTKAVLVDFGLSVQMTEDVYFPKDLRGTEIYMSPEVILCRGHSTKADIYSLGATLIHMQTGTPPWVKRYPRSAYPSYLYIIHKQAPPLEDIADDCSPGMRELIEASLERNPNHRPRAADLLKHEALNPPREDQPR

Row | EC50 (TNFα) [nM] | IC50 (Human Cot) [nM] | SMILES
1 | – | 284 | Fc1ccc(Nc2ncnc3ccc(N[C@@H](c4ccc(Cl)cc4)c4cn(C5COC5)nn4)cc23)cc1Cl [II-7, (S)-N^4-(3-chloro-4-fluorophenyl)-N^6-((4-chlorophenyl)(1-(oxetan-3-yl)-1H-1,2,3-triazol-4-yl)methyl) quinazoline-4,6-diamine]
2 | 527 | 17 | CCN1CCC(n2cc([C@@H](Nc3cc(Cl)c4ncnc(Nc5ccc(F)c(Cl)c5)c4c3)c3ccc(Cl)cc3)nn2)CC1 [II-10, (S)-8-chloro-N^4-(3-chloro-4-fluorophenyl)-N^6-((4-chlorophenyl)(1-(1-ethylpiperidin-4-yl)-1H-1,2,3-triazol-4-yl)methyl) quinazoline-4,6-diamine]
3 | – | 49 | Fc1ccc(Nc2ncnc3ccc(N[C@@H](c4ccc(Cl)cc4)c4cn(C5CCNCC5)nn4)cc23)cc1Cl [II-6, (S)-N^4-(3-chloro-4-fluorophenyl)-N^6-((4-chlorophenyl)(1-(piperidin-4-yl)-1H-1,2,3-triazol-4-yl)methyl) quinazoline-4,6-diamine]
4 | – | 28 | Fc1ccc(Nc2ncnc3c(Cl)cc(NC(c4ccccc4)c4cn(C5CCNCC5)nn4)cc23)cc1Cl (centres unmarked) [II-2, 8-chloro-N^4-(3-chloro-4-fluorophenyl)-N^6-(phenyl(1-(piperidin-4-yl)-1H-1,2,3-triazol-4-yl)methyl) quinazoline-4,6-diamine]
5 | – | 8480 | O=C(OCc1ccccc1)N1CCC(n2cc(C(Nc3cc(Cl)c4ncnc(Nc5ccc(F)c(Cl)c5)c4c3)c3ccccc3)nn2)CC1 (centres unmarked) [II-1, benzyl 4-(4-(((8-chloro-4-((3-chloro-4-fluorophenyl)amino)quinazolin-6-yl)amino)(phenyl)methyl)-1H-1,2,3-triazol-1-yl)piperidine-1-carboxylate]
6 | – | 19 | CCN1CCC(n2cc(C(Nc3cc(Cl)c4ncnc(Nc5ccc(F)c(Cl)c5)c4c3)c3ccccc3)nn2)CC1 (centres unmarked) [II-3, 8-chloro-N^4-(3-chloro-4-fluorophenyl)-N^6-((1-(1-ethylpiperidin-4-yl)-1H-1,2,3-triazol-4-yl)(phenyl)methyl) quinazoline-4,6-diamine]
7 | – | 72 | CC(C)(C)N1CCC(n2cc([C@@H](Nc3ccc4ncnc(Nc5ccc(F)c(Cl)c5)c4c3)c3ccc(Cl)cc3)nn2)CC1 [II-5, (S)-N^6-((1-(1-(tert-butyl)piperidin-4-yl)-1H-1,2,3-triazol-4-yl)(4-chlorophenyl)methyl)-N^4-(3-chloro-4-fluorophenyl) quinazoline-4,6-diamine]

More lines, now with the values behind:

Row | SMILES | EC50 (TNFα) [nM] | IC50 (Human Cot) [nM]
8 | [2H][C@](Nc1cc(Cl)c2ncnc(N[C@H](CCC#N)c3ccccc3)c2c1)(c1ccc(F)cc1)c1cn(C2CC2)nn1 [I-11, (R)-4-((8-chloro-6-(((S)-(1-cyclopropyl-1H-1,2,3-triazol-4-yl)(4-fluorophenyl)methyl-d)amino)quinazolin-4-yl)amino)-4-phenylbutanenitrile] | 671 | 46
9 | CC(C)(C)CNc1ncnc2ccc(N[C@H](c3cn(C4CC4)nn3)c3ccccc3Cl)cc12 [I-8, (S)-N^6-((2-chlorophenyl)(1-cyclopropyl-1H-1,2,3-triazol-4-yl)methyl)-N^4-neopentylquinazoline-4,6-diamine] | 169 | 13
10 | [2H][C@](Nc1ccc2ncnc(NCC3(C)CCOCC3)c2c1)(c1ccc(F)cc1)c1cn(C2CC2)nn1 [I-3, (S)-N^6-((1-cyclopropyl-1H-1,2,3-triazol-4-yl)(4-fluorophenyl)methyl-d)-N^4-((4-methyltetrahydro-2H-pyran-4-yl)methyl)quinazoline-4,6-diamine] | 296 | 11
11 | Cn1ccc2c([C@H](Nc3cc(C#N)c4ncnc(NCC(C)(C)C)c4c3)c3cn(C4(C(F)F)CC4)nn3)cccc2c1=O [I-24, (S)-6-(((1-(1-(difluoromethyl)cyclopropyl)-1H-1,2,3-triazol-4-yl)(2-methyl-1-oxo-1,2-dihydroisoquinolin-5-yl)methyl)amino)-4-(neopentylamino) quinazoline-8-carbonitrile] | 11.3 | 1.2
12 | [2H][C@](Nc1ccc2ncnc(NCC(C)(C)C)c2c1)(c1ccc(F)cc1)c1cn(C2CC2)nn1 [I-1, (S)-N^6-((1-cyclopropyl-1H-1,2,3-triazol-4-yl)(4-fluorophenyl)methyl-d)-N^4-neopentylquinazoline-4,6-diamine] | 101 | 5
13 | CC(C)(C)CNc1ncnc2c(Br)cc(N[C@H](c3cn(C4(C(F)(F)F)CC4)nn3)c3cccc4ncsc34)cc12 [I-18, (S)-N^6-(benzo[d]thiazol-7-yl(1-(1-(trifluoromethyl)cyclopropyl)-1H-1,2,3-triazol-4-yl)methyl)-8-bromo-N^4-neopentylquinazoline-4,6-diamine] | 195 | 8
14 | Cc1c(C#N)cccc1[C@H](Nc1cc(Cl)c2ncnc(NCC(C)(C)C)c2c1)c1cn(C2(C(F)F)CC2)nn1 [I-23, (S)-3-(((8-chloro-4-(neopentylamino)quinazolin-6-yl)amino)(1-(1-(difluoromethyl)cyclopropyl)-1H-1,2,3-triazol-4-yl)methyl)-2-methylbenzonitrile] | – | 1.6
15 | Cn1ccc2c([C@H](Nc3cc(Cl)c4ncnc(NCC(C)(C)C)c4c3)c3cn(C45CC(C4)C5)nn3)cccc2c1=O [I-27, (S)-5-((1-(bicyclo[1.1.1]pentan-1-yl)-1H-1,2,3-triazol-4-yl)((8-chloro-4-(neopentylamino)quinazolin-6-yl)amino)methyl)-2-methylisoquinolin-1(2H)-one] | 12.1 | 1.7
16 | CC(C)(C)CNc1ncnc2ccc(N[C@@H](c3ccc(F)cc3)c3cn(C4CC4)nn3)cc12 [I-2, (S)-N^6-((1-cyclopropyl-1H-1,2,3-triazol-4-yl)(4-fluorophenyl)methyl)-N^4-neopentylquinazoline-4,6-diamine] | 85 | 7.7
17 | [2H][C@@](Nc1cc(Cl)c2ncnc(NCC(C)(C)C)c2c1)(c1cn(C2CC2)nn1)c1ccccc1Cl [I-9, (S)-8-chloro-N6-((2-chlorophenyl)(1-cyclopropyl-1H-1,2,3-triazol-4-yl)methyl-d)-N4-neopentylquinazoline-4,6-diamine] | 86 | 4.8
18 | CC(C)(C)CNc1ncnc2c(C#N)cc(N[C@H](c3cn(C4(C(F)(F)F)CC4)nn3)c3cccc4ncsc34)cc12 [I-17, (S)-6-((benzo[d]thiazol-7-yl(1-(1-(trifluoromethyl)cyclopropyl)-1H-1,2,3-triazol-4-yl)methyl)amino)-4-(neopentylamino) quinazoline-8-carbonitrile] | 59 | 3.3
19 | [2H][C@@](Nc1cc(Cl)c2ncnc(NCC(C)(C)C)c2c1)(c1cn(CC(=O)O)nn1)c1ccccc1Cl [I-10, (S)-2-(4-(((8-chloro-4-(neopentylamino)quinazolin-6-yl)amino)(2-chlorophenyl)methyl-d)-1H-1,2,3-triazol-1-yl)acetic acid] | > 1000 | 13
20 | [2H][C@](Nc1ccc2ncnc(N[C@H](CC)c3ccccc3)c2c1)(c1ccc(F)cc1)c1cn(C2CC2)nn1 [I-4, N^6-((S)-(1-cyclopropyl-1H-1,2,3-triazol-4-yl)(4-fluorophenyl)methyl-d)-N^4-((R)-1-phenylpropyl) quinazoline-4,6-diamine] | 796 | 43
21 | [2H][C@@](Nc1cc(C#N)c2ncnc(NCC(C)(C)C)c2c1)(c1cn(C2CC2)nn1)c1ccccc1Cl [I-19, (S)-6-(((2-chlorophenyl)(1-cyclopropyl-1H-1,2,3-triazol-4-yl)methyl-d)amino)-4-(neopentylamino) quinazoline-8-carbonitrile] | 20 | 2.4
